Positions of bridges follow the written chain, without caps; N, C: chain ends. Non-standard residues stand in square brackets, D forms with d. Residues, ends and D or L forms follow the SMILES beside them. hArg = N=C(N)NCCCC[C@H](N)C(=O)O; Mpa = O=C(O)CCS
Legend:
[1] = test system: ADP induced platelet aggregation; assay: Ex vivo platelet aggregation induced by 10 μM ADP; format: in vivo; settings: Rattus norvegicus, po, 72 h, clopidogrel 1 mg/kg, dosed orally for three days, read-out: inhibition of ADP induced platelet aggregation in platelet rich plasma
Procedure: (§1) In this experiment, the ability of Compound A to maintain vessel patency under arterial flow conditions in ferric chloride induced thrombosis in rat carotid artery is compared to that achieved by clopidogrel. Compound A was administered by intravenous infusions and clopidogrel was dosed orally for three days. Ex vivo platelet aggregation induced by 10 μM ADP and clotting times (prothrombin time, PT and activated partial thromboplastin times, aPTT) were measured over the experimental time course (90 min) in all animals.
This level of platelet inhibition is approximately equivalent to that attained by clopidogrel's effect on human platelets at the therapeutic dose in clinical use (75 mg per day). […] Time to occlusion was measured in animals that had vessel occlusion.

[2] = test system: ferric chloride induced thrombosis in rat carotid artery; assay: Ferric chloride induced thrombosis in rat carotid artery; format: in vivo
[3] = test system: systolic and diastolic blood pressure; assay: Telemetry blood pressure in conscious beagle dogs, three way crossover; format: in vivo
Procedure: The study design was a three way crossover with one week between doses to ensure complete elimination of residual agents from the dogs' circulatory system. […] Data acquisition and analysis was performed using LDS Life Science Suite Ponemah P3 plus V 4.20 software with results reported as 10 minute averages for each animal.
AUC was derived from the systolic and diastolic baseline. […] Negative values represent a decrease in blood pressure relative to the baseline value.

[4] = test system: Interleukin 8; assay: Ex vivo cytokine release in human whole blood: interleukin 8; format: cell-based; settings: ASA treated donors, no Compound A (Control = 100.0)
Procedure: An ex vivo assay system of human cytokine release was used to test whether inhibition of factor Xa should augment the effect of reduction of inflammation elicited by standard anti-inflammatory drugs, such as aspirin.
At the end of the activation period, blood samples were centrifuged at 13,000 rpm (15,000 g) for 5 min in an Eppendorf 5415G centrifuge. Plasma was removed, treated with protease inhibitor cocktail (Roche) and stored frozen at −80° C. Cytokines released from the blood cells were quantitated in a Multiplexed Biomarker Immunoassay for Luminex Instrumentation (Millipore USA).

[5] = test system: collagen induced platelet aggregation; assay: Ex vivo platelet aggregation induced by 10 μg/mL of collagen; format: in vivo; settings: Rattus norvegicus
Procedure: The combination effect of an anticoagulant and anti-platelet agent, aspirin, was investigated in an in vivo model of thrombosis. […] Ex vivo platelet aggregation induced by 10 μg/mL of collagen and clotting times (prothrombin time, PT and activated partial thromboplastin times, aPTT) were measured over the experimental time course (90 min) in all animals.

[6] = test system: thrombin generation; assay: Thrombin generation assay in platelet rich plasma (PRP); format: biochemical, human; settings: ASA donors (aspirin for at least three days), 0 nM Compound A; normalized to Non-ASA at 0 nM
Procedure: PRP and PPP were prepared by spinning the anticoagulated blood at ˜100×g or 1000×g for 20 minutes, respectively, at room temperature. Platelet counts in PRP were adjusted with homologous PPP to about 200,000 platelets/μL. For thrombin generation in 100 μL reaction mixture, 75 μL PRP was first mixed with CaCl2, convulxin, and Z-Gly-Gly-Arg-aminomethylcoumarin (Z-GGR-AMC, a thrombin fluorogenic substrate) for 3 minutes at 37° C., followed by adding tissue factor (Innovin, Dade Behring) to initiate the generation of thrombin. A typical reaction mixture contained 15 mM Ca^2+, 0.1 μg/mL convulxin, 100 μM Z-GGR-AMC, and 0.1 nM TF (tissue factor) (Innovin). Thrombin formation was monitored continuously at 37° C. by a fluorometric plate reader (Molecular Devices) measuring the relative fluorescence units (RFU). Inhibitors were pre-incubated with plasma for 20 minutes at room temperature before adding CaCl2 and convulxin.
Non-ASA represents result from donors free of aspirin. ASA represents results from donors taken aspirin for at least three days. % Inhibition was calculated by normalization of mean RFU (n=5) to Non-ASA at 0 nM Compound A.

[7] = test system: clotting times (prothrombin time, PT and activated partial thromboplastin times, aPTT); assay: Ex vivo clotting times (PT, aPTT) in the rat thrombosis model; settings: Compound A 0.03 μM, aspirin 3 mg/kg, or both
Procedure: as §1
as §1, with “The combination effect of an anticoagulant and anti-platelet agent, aspirin, was investigated in an in vivo model of thrombosis. […] In” for “In”, “aspirin.” for “clopidogrel.”, “aspirin” for “clopidogrel”, “administered as an intravenous bolus approximately 30 min prior to the start of the experiment.” for “dosed orally for three days.”, “μg/mL of collagen” for “μM ADP”

[8] = test system: human whole blood; assay: Real time perfusion chamber: whole blood perfused over collagen and tissue factor coated surface; format: cell-based; settings: 2.4 μM eptifibatide alone (0 nM Compound A), shear rate 300 s^−1, five donors
Procedure: After the perfusion, the thrombotic activity was quantified by measurement of labeled fibrin produced as a result of fibrinogen cleavage during the activation of platelets and the blood coagulation system. For this series of experiments in five healthy human volunteers, blood was obtained by venipuncture and treated with 2.4 μM eptifibatide. The dose of eptifibatide corresponds to the plasma concentration attained by therapeutic concentrations of the GPIIb/IIIa inhibitor.

[9] = test system: venous thromboembolism (VTE); assay: Prospective randomized trial for prevention of venous thromboembolic events after total knee replacement; settings: Enoxaparin 30 mg bid subcutaneous, 10-14 days, n = 41
Text: Safety endpoints included the incidence of major and clinically significant nonmajor bleeds through the day after venography. All efficacy and bleeding endpoints were adjudicated by a blinded, independent central adjudication committee.

[10] = test system: pooled human plasma; assay: Ex vivo clotting assays (aPTT) in pooled human plasma; format: biochemical; settings: 0.5 U/mL enoxaparin
[11] = Dog # 1, oral, Compound A 3 mg/kg, verapamil 10 mg/kg
[12] = Dog # 2, oral, Compound A 3 mg/kg, verapamil 10 mg/kg
[13] = Dog # 3, oral, Compound A 3 mg/kg, verapamil 10 mg/kg
[14] = following verapamil or placebo administration ([…]), relative to baseline
[15] = three dogs, oral, Compound A 3 mg/kg, verapamil 10 mg/kg

In the case of `COC(=O)[C@H](c1ccccc1Cl)N1CCc2sccc2C1` [Clopidogrel, reference compound], the inhibition at 1 mg/kg [1] was 46%, the “% Animals that did not occlude” value ([2]; clopidogrel 0.01 mg/kg (sub-therapeutic dose), oral) was 10% and the “inhibition of rat thrombosis (animals that did not occlude)” value ([2]; clopidogrel 1 mg/kg, dosed orally for three days) was 89%.
For `COc1ccc(CCN(C)CCCC(C#N)(c2ccc(OC)c(OC)c2)C(C)C)cc1OC` (stereo not drawn) [Verapamil, reference compound], the “Lowest Diastolic Blood Pressure Post-Dosing” value [3, 11] was 65.11 mmHg, the “Lowest Systolic Blood Pressure Post-Dosing” value [3, 11] was 137.18 mmHg and the “Lowest Diastolic Blood Pressure Post-Dosing” value [3, 12] was 62.47 mmHg. The “Lowest Systolic Blood Pressure Post-Dosing” value [3, 12] was 111.90 mmHg, the “Lowest Diastolic Blood Pressure Post-Dosing” value [3, 13] was 51.94 mmHg and the “Lowest Systolic Blood Pressure Post-Dosing” value [3, 13] was 95.52 mmHg. The “decrease of diastolic blood pressure” value ([3]; Verapamil 10 mg/kg as a single agent, within one hour of oral administration) was 33%, the “Mean Area Under the Curve for Diastolic Pressure (AUCP), Mean ± S.D.” value [3, 14] was −3077.8 ± 1845.51 mmHg * min and the “Mean Area Under the Curve for Systolic Pressure (AUCP), Mean ± S.D.” value [3, 14] was −1133.6 ± 1134.7 mmHg * min. For the same molecule, the “Mean Area Under the Curve for Diastolic Pressure (AUCP), Mean ± S.D.” value ([3]; following verapamil or placebo administration ([…]), relative to baseline, listed as verapamil) was −3079±1846 mmHg * min, the “Lowest Diastolic Blood Pressure Post-Dosing, Mean ± S.D.” value [3, 15] was 59.84 ± 6.97^1 mmHg and the “Lowest Systolic Blood Pressure Post-Dosing, Mean ± S.D.” value [3, 15] was 114.87 ± 20.99 mmHg.
`CC(=O)Oc1ccccc1C(=O)O` [aspirin, acetylsalicylic acid, reference compound] was tested, and the “% DNO (inhibition of rat thrombosis)” value ([2]; Compound A 0.03 μM iv infusion, aspirin 3 mg/kg iv bolus, or both) was 30%, the “animals that did not occlude” value ([2]; aspirin 1.0 mg/kg iv bolus) was 10% and the “inhibition of rat thrombosis (animals that did not occlude)” value ([2]; aspirin 10 mg/kg iv bolus) was 33.3%. For the same molecule, the “TTO (Time to occlusion)” value ([2]; average for animals that occluded, Compound A 0.03 μM, aspirin 3 mg/kg, or both) was 31.61 ± 10.91 min, the “DNO (did not occlude)” value ([2]; number of 10 animals, Compound A 0.03 μM iv infusion, aspirin 3 mg/kg iv bolus, or both) was 3 and the “Percent Release of IL8” value [4] was 66.7%. It also gave an inhibition at 1 mg/kg ([5]; aspirin 1.0 mg/kg iv bolus) of under 2%, an inhibition at 3 mg/kg ([5]; aspirin 3 mg/kg iv bolus, read-out: inhibition of collagen induced platelet aggregation in platelet rich plasma) of 35% and an inhibition at 10 mg/kg ([5]; aspirin 10 mg/kg iv bolus) of 77%. The “% Inhibition of thrombin generation” value [6] was 21.5%, the “APTT Ratio” value [7] was 1.02 and the “PT ratio” value [7] was 1.01.
`N=C(N)NCCCC[C@@H]1NC(=O)CCSSC[C@@H](C(N)=O)NC(=O)[C@@H]2CCCN2C(=O)[C@H](Cc2c[nH]c3ccccc23)NC(=O)[C@H](CC(=O)O)NC(=O)CNC1=O` [eptifibatide, reference compound] ([Mpa][hArg]GDWPC-NH2; disulfide 1-7) was tested, and the “Mean Fluorescence” value [8] was 118.0.
Enoxaparin [reference compound] was tested, and the VTE % [9] was 10% and the “activated partial thromboplastin time (aPTT)” value [10] was 55 s.
